Source: ChEMBL document CHEMBL1138702, “Determination of the free radical scavenging activity of dihydropyran-2,4-diones” (Bioorg Med Chem Lett, 2004)

Columns and labels:
[1] = Concentration required to decrease the initial concentration of 2,2-diphenyl-1-picrylhydrazyl (DPPH) by 50% after 60 min
[2] = Antioxidant ability determined by the parameter antiradical power that is related to the factor EC50

| EC50 [1] [mM] | ARP [2] [m/M] | Structure (SMILES) |
| --- | --- | --- |
| 7.61 | 0.13 | COc1ccc(C2CC(=O)CC(=O)O2)cc1 (stereo not drawn) |
| 1.4 | 0.71 | O=C1CC(=O)OC(c2ccccc2)C1 (stereo not drawn) |
| 1.44 | 0.7 | C/C=C/C1CC(=O)CC(=O)O1 (stereo not drawn) |
| 7.13 | 0.14 | COc1ccc(C2CC(=O)CC(=O)O2)cc1OC (stereo not drawn) |
